# Measurements: patent US20210253518A1, “KINASE INHIBITOR” (NISSAN CHEMICAL CORPORATION, priority 2018, published 2021)
# System: YAP-regulated genes
# Experiment: DNA microarray gene expression in SKOV3 cells
# Format: cell-based, human
# Details: 10 μM
# Experimental: According to the method of patent document (WO 2014/017513), a composition of McCoy's 5a medium (manufactured by Sigma-Aldrich) containing 0.015% (w/v) deacylated gellan gum (KELCOGEL CG-LA, manufactured by Sansho Co., Ltd.), 30 ng/mL human HB-EGF (manufactured by PEPROTECH), and 15% (v/v) FBS was prepared. Human ovarian cancer cell line SKOV3 cultured according to the protocol recommended by DS Pharma Biomedical Co., Ltd. was suspended in the medium and seeded on a 6 well plate (manufactured by Corning Incorporated, #3471) at 1,000,000 cells/3.3 mL/well. Successively, k-1:B-1 dissolved in DMSO was added to the cell suspension at a final concentration of 10 μM. After further culturing in a CO2 incubator at 37° C. for 6 or 24 hr, 11 mL of phosphate buffered saline (PBS, manufactured by Sigma-Aldrich Japan) was added to the cell culture medium and the cells were precipitated by a centrifugation treatment (400 G, 3 min). The supernatant was removed, the cells were suspended in PBS (10 mL), and further subjected to a centrifugation treatment (400 G, 5 min) to give cell pellets. Successively, total RNA (ribonucleic acid) was isolated from the obtained cells by using RNAeasy Mini Kit (manufactured by Qiagen). DNA microarray of this RNA was performed by HumanGene 2.0ST Array (manufactured by Affymetrix), and changes in the human gene expression due to the addition of the specific compound were comprehensively analyzed (gene analysis contract service of Kurabo Industries Ltd. was used, product number; GA0312).
structure (smiles),measurement,setting,value
CC/C(=N\NC(=O)C(C)Nc1ccccc1)c1ccc(O)c(C)c1O (centres unmarked) [k-1:B-1],AMOTL2 expression rate when no addition is 1,6 hr later,6.92
same,ANKRD1 expression rate when no addition is 1,6 hr later,35.3
same,BIRC2 expression rate when no addition is 1,6 hr later,1.27
same,CCND1 expression rate when no addition is 1,6 hr later,1.63
same,CTGF expression rate when no addition is 1,6 hr later,21.4
same,CYR61 expression rate when no addition is 1,6 hr later,29.6
same,TGFB2 expression rate when no addition is 1,6 hr later,3.63
same,AMOTL2 expression rate when no addition is 1,24 hr later,7.89
same,ANKRD1 expression rate when no addition is 1,24 hr later,72.1
same,BIRC2 expression rate when no addition is 1,24 hr later,1.44
same,CCND1 expression rate when no addition is 1,24 hr later,2.01
same,CTGF expression rate when no addition is 1,24 hr later,23.2
same,CYR61 expression rate when no addition is 1,24 hr later,26.9
same,TGFB2 expression rate when no addition is 1,24 hr later,9.84
